Assay results as given in patent US20090143279A1 (priority 2007, published 2009).
Read-outs that look alike come from different tables or passages of the source.

Columns and labels:
[1] = tested on: nuOXPHOS transcripts; format: cell-based, mouse
[2] = tested on: OXPHOS gene expression; format: cell-based, mouse
[3] = tested on: mitochondrial membrane potential; format: cell-based, mouse
[4] = tested on: mtOXPHOS transcripts; format: cell-based, mouse
[5] = tested on: cellular dehydrogenase activity
[6] = tested on: reactive oxygen species; format: cell-based, mouse
[7] = tested on: cytochrome c; format: cell-based, mouse
[8] = tested on: C2C12 myotubes
[9] = composite Z-score vs mock-treated (DMSO) wells, Conc 20 μM
[10] = normalized composite Z-score vs mock-treated (DMSO) wells, Conc 20 μM
[11] = Conc 20 μM, normalized score vs mock-treated (DMSO) wells
[12] = 13.16 μM, composite Z-score vs DMSO
[13] = 20 μM, composite Z-score vs DMSO
[14] = composite Z-score vs DMSO wells, Conc 20 μM
[15] = Table 7, C2C12 myotubes, 48 h, composite Z-score

How did the nucOX [1, 9] turn out when `COc1cc(-c2coc3cc(OC)c(OC)c(OC)c3c2=O)cc(OC)c1OC` [irigenin trimethyl ether] was run?
Its nucOX is −0.790.

And the GE-HTS [2, 9]?
Its GE-HTS is −0.792.

What about the ΔΨm [3, 9] of the same compound?
Its ΔΨm is −0.174.

And the mitoOX [4, 9]?
The mitoOX was −0.699.

And the MTT [5, 9]?
Its MTT is −0.808.

And the ROS [6, 9]?
Its ROS is −0.074.

What about the cyt c [7, 9] of the same compound?
Its cyt c is 0.129.

What about the Viability [8, 9] of the same compound?
The Viability was −0.060.

`C[C@]12CC[C@H]3[C@@H](CC[C@]4(O)C[C@@H](O)CC[C@]34C(=O)O)[C@@]1(O)CC[C@@H]2C1=CC(=O)OC1` [strophanthidinic acid] was tested. Which nucOX [1, 10] did it give?
Its nucOX is −0.400.

What about the GE-HTS [2, 10] of the same compound?
The GE-HTS was −0.553.

And the ΔΨm [3, 10]?
The ΔΨm was −0.875.

And the mitoOX [4, 10]?
Its mitoOX is −0.726.

And the MTT [5, 10]?
The MTT was −1.651.

What about the ROS [6, 10] of the same compound?
Its ROS is −0.059.

And the cyt c [7, 10]?
The cyt c was 0.166.

What about the Viability [8, 10] of the same compound?
The Viability was −0.745.

Which results are given for `CC(=O)O[C@H]1C[C@@H](OC(C)=O)C(C)(C)[C@@H]2C[C@@H](OC(C)=O)[C@@]3(C)C4=CC(=O)O[C@@H](c5ccoc5)[C@]4(C)CC[C@@H]3[C@@]12C` [deoxykhivorin]?
nucOX (composite Z-score) [1, 11]: −0.917; GE-HTS (composite Z-score) [2, 11]: −1.026; ΔΨm (composite Z-score) [3, 11]: 0.449; mitoOX (composite Z-score) [4, 11]: −1.101; MTT (composite Z-score) [5, 11]: −0.494; ROS (composite Z-score) [6, 11]: −0.038; cyt c (composite Z-score) [7, 11]: 0.073; Viability (composite Z-score) [8, 11]: 0.803

For `COc1c(-c2coc3cc4c(cc3c2=O)CC(O)C(C)(C)O4)ccc2c1C=CC(C)(C)O2` (stereo not drawn) [mundulone, reference compound], which nucOX [1, 10] is on record?
Its nucOX is −1.888.

What about the GE-HTS [2, 10] of the same compound?
The GE-HTS was −1.719.

What about the ΔΨm [3, 10] of the same compound?
The ΔΨm was 3.037.

What about the mitoOX [4, 10] of the same compound?
Its mitoOX is −1.091.

And the MTT [5, 10]?
Its MTT is −2.487.

And the ROS [6, 10]?
The ROS was −0.141.

What about the cyt c [7, 10] of the same compound?
The cyt c was −0.843.

And the Viability [8, 10]?
Its Viability is −1.113.

Which results are given for `CC(COc1ccccc1)N(CCCl)Cc1ccccc1` (stereo not drawn) [phenoxybenzamine]?
nucOX [1, 12]: −0.306; nucOX [1, 13]: −1.077; GE-HTS [2, 12]: −0.155; GE-HTS [2, 13]: −1.302; ΔΨm [3, 12]: −0.422; ΔΨm [3, 13]: 0.021; mitoOX [4, 12]: 0.167; mitoOX [4, 13]: −1.462; MTT [5, 12]: −0.159; MTT [5, 13]: −1.049; ROS [6, 12]: 0.444; ROS [6, 13]: 0.256; cyt c [7, 12]: −0.470; cyt c [7, 13]: −0.188; Viability [8, 12]: −0.751; Viability [8, 13]: −0.906

With `COc1ccccc1/C=C/C(=O)O` [coumarinic acid methyl ether] as the compound, how does the “nucOX (composite Z-score)” value [1] read?
The value was 0.031.

And the “GE-HTS (composite Z-score)” value [2]?
The value was 0.143.

And the “ΔΨm (composite Z-score)” value [3]?
The value was −1.070.

What about the “mitoOX (composite Z-score)” value [4] of the same compound?
The value was 0.383.

And the “MTT (composite Z-score)” value [5]?
Its value is −2.099.

What about the “ROS (composite Z-score)” value [6] of the same compound?
The value was 0.917.

What about the “cyt c (composite Z-score)” value [7] of the same compound?
The value was 0.170.

What about the “Viability (composite Z-score)” value [8] of the same compound?
Its value is −0.844.

With `Oc1c(Cl)cc(Cl)cc1Sc1cc(Cl)cc(Cl)c1O` [bithionol] as the compound, how does the nucOX [1, 14] read?
Its nucOX is −1.261.

And the GE-HTS [2, 14]?
The GE-HTS was −1.531.

What about the ΔΨm [3, 14] of the same compound?
Its ΔΨm is −2.723.

And the mitoOX [4, 14]?
The mitoOX was −1.838.

What about the MTT [5, 14] of the same compound?
Its MTT is 0.593.

And the ROS [6, 14]?
The ROS was 1.449.

And the cyt c [7, 14]?
Its cyt c is −2.613.

And the Viability [8, 14]?
Its Viability is −2.247.

Which results are given for `Cc1cc(O)cc(C)c1Cl` [chloroxylenol]?
nucOX [1, 13]: −0.857; GE-HTS [2, 13]: −0.811; ΔΨm [3, 13]: −0.917; mitoOX [4, 13]: −0.614; MTT [5, 13]: −2.046; ROS [6, 13]: 2.165; cyt c [7, 13]: 0.499; Viability [8, 13]: −0.639

Which nucOX [1] does the source give for `OC(c1cc(C(F)(F)F)nc2c(C(F)(F)F)cccc12)C1CCCCN1` (stereo not drawn) [mefloquine] here?
Its nucOX is −0.073.

What about the nucOX [1, 13] of the same compound?
The nucOX was 0.552.

What about the GE-HTS [2] of the same compound?
The GE-HTS was −0.036.

And the GE-HTS [2, 13]?
Its GE-HTS is 0.362.

What about the ΔΨm [3] of the same compound?
Its ΔΨm is −0.537.

And the ΔΨm [3, 13]?
Its ΔΨm is −0.505.

And the mitoOX [4]?
Its mitoOX is 0.007.

And the mitoOX [4, 13]?
Its mitoOX is −0.093.

And the MTT [5]?
Its MTT is −1.368.

What about the MTT [5, 13] of the same compound?
The MTT was 0.374.

And the ROS [6]?
Its ROS is −0.069.

And the ROS [6, 13]?
The ROS was −0.983.

What about the cyt c [7] of the same compound?
Its cyt c is 0.498.

What about the cyt c [7, 13] of the same compound?
Its cyt c is −1.496.

What about the Viability [8] of the same compound?
The Viability was −0.183.

And the Viability [8, 13]?
The Viability was 1.135.

Which results are given for `CC1COc2c(N3CCN(C)CC3)c(F)cc3c(=O)c(C(=O)O)cn1c23` (stereo not drawn) [ofloxacin]?
nucOX [1]: 0.059; nucOX [1, 13]: −0.622; GE-HTS [2]: 0.182; GE-HTS [2, 13]: −0.458; ΔΨm [3]: −0.891; ΔΨm [3, 13]: −0.281; mitoOX [4]: 0.353; mitoOX [4, 13]: −0.041; MTT [5]: −0.967; MTT [5, 13]: −1.248; ROS [6]: 0.908; ROS [6, 13]: −0.182; cyt c [7]: 0.492; cyt c [7, 13]: 0.309; Viability [8]: −0.425; Viability [8, 13]: −1.148

What does the source list for `COc1ccc2c(=O)c(CC(=O)O)coc2c1` [anhydrobrazilic acid, reference compound]?
nucOXPHOS Z [1, 15]: 1.56; nucOX [1, 10]: 1.559; GE-HTS [2, 10]: 1.730; ΔΨm [3, 10]: −0.353; mito-OXPHOS Z [4, 15]: 1.68; mitoOX [4, 10]: 1.678; MTT [5, 10]: −1.007; ROS [6, 10]: 0.388; cyt c [7, 10]: 0.579; Viability [8, 10]: −0.072
